Laboratory results taken from publication PMC11811597, “Phenomics‐Based Discovery of Novel Orthosteric Choline Kinase Inhibitors” (Angewandte Chemie (International Ed. in English), 2025).
Where two headings read alike, the source gives them in different places.

Columns and labels:
HNRNPD = target: T1, HNRNPD (Homo sapiens, UniProt Q14103); experiment: PISA thermal profiling, K562 cell lysates; type: binding; conditions: K562 lysate, 30 µM, 15 min, n=3
T1 construct: endogenous in cells; host or cells: K562 cell lysate
T1 sequence (Q14103 whole entry): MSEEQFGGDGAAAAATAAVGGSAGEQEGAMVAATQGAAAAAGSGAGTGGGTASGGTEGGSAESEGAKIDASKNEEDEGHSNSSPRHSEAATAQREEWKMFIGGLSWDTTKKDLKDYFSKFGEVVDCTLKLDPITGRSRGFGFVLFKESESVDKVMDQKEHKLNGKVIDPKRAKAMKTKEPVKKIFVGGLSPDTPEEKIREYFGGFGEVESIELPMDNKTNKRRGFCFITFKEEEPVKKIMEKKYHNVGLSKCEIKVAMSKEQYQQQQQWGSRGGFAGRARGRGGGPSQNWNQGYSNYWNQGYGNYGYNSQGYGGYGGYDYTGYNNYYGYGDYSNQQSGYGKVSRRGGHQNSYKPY
Experimental: (§1) Experiments were performed as described earlier with few modifications. In short, 3 replicates of intact HepG2 cells were treated with 30 µM UNC0638, […] or corresponding volume of DMSO in medium-free experimental buffer for 60 min at 37 °C with end-over-end rotation. For lysates: Washed K562 cells were resuspended in medium-free experimental buffer and lysed by three freeze-thaw cycles. Lysate was centrifugated 20,000 × g for 20 min at 4 °C to remove cell debris. The cleared lysate was treated with 30 µM UNC0638, UNC0373 or corresponding volume of DMSO for 15 min at RT with end-over-end rotation. Each treated cell suspension or lysate was divided into 12 aliquots and subjected to a 12-step heat gradient from 44 °C to 64 °C. All the temperature points were pooled together to form […] individual samples. Soluble fraction was separated from precipitated proteins […]
(§2) by centrifugation at 30,000 × g for 20 min at 4 °C. The soluble fractions were collected to fresh tubes and further processed to be analysed with mass spectrometry. Sample handling, TMT labelling, LC-MS/MS analysis, protein identification and data analysis was performed as described earlier.[12] […]
(§3) Figure S3: Western blot of elution fractions after chemical pulldown with UNC0965 in MCF7 cell extract pre-incubated with indicated compounds (20 μM) or DMSO.
(§4) Figure S4: PISA thermal profiling results in K562 cell lysates. A) Volcano plots of UNC0638 and […]
(§5) Dashed lines represent amplitude > 0.05, < - 0.05 and log10(adjusted p-values) > 2 (two-sided two sample t-test, Benjamini-Hochberg corrected, n = 3).
(§6) 6,924 proteins were identified. B) UNC0737 stabilises CHKA stronger than UNC0638. […]

R3HCC1L = target: T2, R3HCC1L (Homo sapiens, UniProt Q7Z5L2); experiment: PISA thermal profiling, K562 cell lysates; type: binding; conditions: K562 lysate, 30 µM, 15 min, n=3
T2 construct: endogenous in cells; host or cells: K562 cell lysate
T2 sequence (Q7Z5L2 1-184 isoform Q7Z5L2-3): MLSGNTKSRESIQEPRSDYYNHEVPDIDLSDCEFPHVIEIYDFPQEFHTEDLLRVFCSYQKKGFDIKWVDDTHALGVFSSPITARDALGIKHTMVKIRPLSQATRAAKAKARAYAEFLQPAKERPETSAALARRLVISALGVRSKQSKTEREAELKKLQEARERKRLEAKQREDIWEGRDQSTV
Experimental: as §1, §2, §3, §4, §5, §6

RBBP8NL = target: T3, RBBP8NL (Homo sapiens, UniProt Q8NC74); experiment: PISA thermal profiling, K562 cell lysates; type: binding; conditions: K562 lysate, 30 µM, 15 min, n=3
T3 construct: endogenous in cells; host or cells: K562 cell lysate
T3 sequence (Q8NC74 whole entry): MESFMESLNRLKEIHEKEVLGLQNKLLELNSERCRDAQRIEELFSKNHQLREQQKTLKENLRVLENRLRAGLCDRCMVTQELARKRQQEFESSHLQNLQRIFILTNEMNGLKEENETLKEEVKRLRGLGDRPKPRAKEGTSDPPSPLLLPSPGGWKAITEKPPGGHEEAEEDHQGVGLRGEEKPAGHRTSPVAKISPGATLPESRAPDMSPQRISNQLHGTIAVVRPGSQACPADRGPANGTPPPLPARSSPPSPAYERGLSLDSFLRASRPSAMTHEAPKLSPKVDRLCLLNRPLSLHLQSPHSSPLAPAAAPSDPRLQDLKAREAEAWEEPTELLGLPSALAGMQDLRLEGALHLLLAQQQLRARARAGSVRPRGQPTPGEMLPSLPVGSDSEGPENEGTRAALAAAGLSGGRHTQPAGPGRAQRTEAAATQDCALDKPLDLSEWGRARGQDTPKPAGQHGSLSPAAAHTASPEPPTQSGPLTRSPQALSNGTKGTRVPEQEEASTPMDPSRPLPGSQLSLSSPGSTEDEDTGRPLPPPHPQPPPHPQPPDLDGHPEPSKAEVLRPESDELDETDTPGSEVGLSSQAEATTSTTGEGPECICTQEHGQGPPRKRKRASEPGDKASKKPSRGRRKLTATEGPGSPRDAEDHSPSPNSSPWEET
Experimental: as §1, §2, §3, §4, §5, §6

CHKA [1] = target: T4, CHKA (Homo sapiens, UniProt P35790); experiment: Isothermal calorimetry (ITC); type: binding; set-up: host or cells: E. coli BL21(DE3)
Experimental: mM NaCl, 5% glycerol, 500 mM imidazole, 0.5% TCEP, pH 7.5), the eluent was concentrated, and further purified by size exclusion chromatography using a HiLoad 16/600 Superdex S200 column (Cytiva) pre-equilibrated in Buffer C (20 mM HEPES, 150 mM NaCl, pH 7.5). The resulting protein purity was assessed by SDS-PAGE, and protein identity was confirmed by tryptic digest analysis. Protein concentration was determined to be 35.5 mg/mL, and was calculated using a theoretical molar extinction coefficient of 58830 M-1cm-1 as determined by ProtParam.[5]
Isothermal Calorimetry (ITC)
ITC experiments were performed in a buffer containing 20 mM HEPES pH 7.5 and 200 mM NaCl, using an VP-ITC microcalorimeter (MicroCal) at 15 °C. The protein concentration was 200 µM and compounds were tested at 20 µM. The titrations were conducted using an initial injection of 4 μL followed by further 29 injections of 8 μL each. Thermodynamic parameters were calculated using ΔG = ΔH − TΔS = −RT ln KB, where ΔG, ΔH, and ΔS are the changes in free energy, enthalpy, and entropy of binding, respectively. Single binding models were employed to fit the data. […]
Target sequence in this assay (P35790 75-457 limits assumed): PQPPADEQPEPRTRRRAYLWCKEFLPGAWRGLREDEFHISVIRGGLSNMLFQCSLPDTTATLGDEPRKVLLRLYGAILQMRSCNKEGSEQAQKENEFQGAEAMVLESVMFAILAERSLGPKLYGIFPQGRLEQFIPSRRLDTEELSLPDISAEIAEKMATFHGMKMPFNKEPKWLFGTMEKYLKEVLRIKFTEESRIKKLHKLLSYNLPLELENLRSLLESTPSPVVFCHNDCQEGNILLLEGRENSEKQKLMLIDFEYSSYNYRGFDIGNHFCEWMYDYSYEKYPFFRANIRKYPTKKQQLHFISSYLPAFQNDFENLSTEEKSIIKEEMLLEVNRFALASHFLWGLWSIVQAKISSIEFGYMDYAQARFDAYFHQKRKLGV

[2] = test system: primary human cell‐based tissue and disease models; experiment: BioMAP Diversity PLUS panel; conditions: for clustering of overall BioMAP responses across all biomarkers: 12 systems, Pearson's correlation >0.7; for IgG secretion, BioMAP PBMC panel: BioMAP B cell profiling
Excerpt: Having confirmed that UNC0638 and UNC0737 are potent bona fide CHKA inhibitors, we next turned our attention to further investigate the role of CHKA in cellular signalling. While CHKA has been studied extensively in the context of malignant disease, there has been a growing acknowledgment of its relevance in immune metabolism.[9, 10] […] We profiled UNC0638 and UNC0737 alongside the orthogonal CHKA inhibitors V‐11‐0711 and ARIAD against the BioMAP Diversity PLUS panel (Figures S7).[24] This set comprises 148 distinct biomarkers across 12 systems, including panels for systemic immune responses. […] The decrease in IgG secretion was accompanied by a reduction in stimulation‐induced B cell maturation into CD27^+IgD^− memory CD19^+ B cells (Figure 4D). […]
consecutive concentrations change in the same direction relative to vehicle controls, are outside of the significance envelope, and have at least one concentration with an effect size > 20% (|log10ratio| > 0.1). Biomarker key activities are described as modulated if these activities increase in some systems, but decrease in others. Cytotoxicity is indicated on the profile plot by a thin black arrow above the x- […]
Cytotoxicity and antiproliferative arrows only require one concentration to meet the indicated threshold for profile annotation. […]

CHKA [3] = target: T4, CHKA; experiment: PISA thermal profiling, K562 cell lysates; type: binding; set-up: endogenous in cells; conditions: 30 µM; for stabilisation of CHKA (PISA): K562 cell lysates; for effect_CETSA_Lysate (PISA amplitude), CHKA: K562 lysate, 15 min, n=3
Experimental: as §1, §2, §3, §4, §5, §6
Target sequence in this assay (P35790 whole entry): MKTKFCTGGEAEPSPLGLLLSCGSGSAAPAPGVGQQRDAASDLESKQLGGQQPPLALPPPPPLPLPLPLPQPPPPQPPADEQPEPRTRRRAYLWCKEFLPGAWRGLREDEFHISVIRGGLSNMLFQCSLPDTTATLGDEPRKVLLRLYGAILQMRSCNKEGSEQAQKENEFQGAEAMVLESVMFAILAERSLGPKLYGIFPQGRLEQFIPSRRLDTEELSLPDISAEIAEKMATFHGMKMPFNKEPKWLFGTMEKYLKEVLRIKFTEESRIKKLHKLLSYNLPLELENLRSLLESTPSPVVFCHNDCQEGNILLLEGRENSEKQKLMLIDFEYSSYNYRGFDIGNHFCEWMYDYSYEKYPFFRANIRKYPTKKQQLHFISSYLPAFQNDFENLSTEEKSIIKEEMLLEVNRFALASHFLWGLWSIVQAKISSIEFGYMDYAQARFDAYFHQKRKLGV

| Structure (SMILES) | effect_CETSA_Lysate (PISA amplitude), HNRNPD (HNRNPD) | effect_CETSA_Lysate (PISA amplitude), R3HCC1L (R3HCC1L) | effect_CETSA_Lysate (PISA amplitude), RBBP8NL (RBBP8NL) | Kd (CHKA [1]; ITC, 15 °C, recombinant human CHKA, read-out: KD) | clustering of overall BioMAP responses across all biomarkers [2] | IgG secretion, BioMAP PBMC panel [2] | stabilisation of CHKA (PISA) (CHKA [3]) | effect_CETSA_Lysate (PISA amplitude), CHKA (CHKA [3]) | Kd (CHKA [1]) |
| --- | --- | --- | --- | --- | --- | --- | --- | --- | --- |
| COc1cc2c(NC3CCN(C(C)C)CC3)nc(C3CCCCC3)nc2cc1OCCCN1CCCC1 [UNC0638] | 0.387 | 0.239 | 0.217 | 270 nM | clustered together with the known CHKA inhibitors | significant effects on IgG secretion | selective stabilisation of CHKA | 0.202 |  |
| COc1cc2c(N(C)C3CCN(C(C)C)CC3)nc(C3CCCCC3)nc2cc1OCCCN1CCCC1 [UNC0737] | 0.605 | 0.415 | 0.393 |  | clustered together with the known CHKA inhibitors | significant effects on IgG secretion | selective stabilisation of CHKA | 0.504 | 59.3 nM |
